This is an account of results in patent publication US20190309272A1, “Genetically Modified Cell Lines Including a TP53 Modification and Methods of Use” (UNIVERSITY OF SOUTH CAROLINA, priority 2018, published 2019).

Structures can show the parent of a compound that is named as a salt.

Common to all, as to type: cell-based, Human
One assay relates to MCF7 WT Parental pool. Description: Drug screening, resazurin, MCF7 wild type parental pool. Particulars: for MCF7 WT Parental pool (AUC): ten-day drug treatment, 156.25 nM to 10 μM, resazurin fluorescence. A general note: Alamar Blue is a resazurin reagent that responds to reducing activity.
The next assay concerns MCF7 PR WT C7. Description: Drug treatment of single cell clone PR WT C7. Also: unit not given here. As to conditions: ten day drug treatment.
The next assay deals with MCF7 PR WT G2. Description: Drug treatment of single cell clone PR WT G2. Also: unit not given here. As to conditions: ten day drug treatment.
In another assay the test system is MCF7 PR WT A8. Description: Drug treatment of single cell clone PR WT A8. Also: unit not given here. As to conditions: ten day drug treatment.
Another assay relates to MCF7 PR WT B8. Description: Drug treatment of single cell clone PR WT B8. Also: unit not given here. Particulars: ten day drug treatment.
Another assay has as its system MCF7 TP53 KO 3.4 pool. Description: Drug screening, resazurin, TP53 KO 3.4 pool. Particulars: ten-day drug treatment, 156.25 nM to 10 μM, resazurin fluorescence.
The subject of a further assay is MCF7 TP53 KO 5.6 pool. Description: Drug screening, resazurin, TP53 KO 5.6 pool. As to conditions: ten-day drug treatment, 156.25 nM to 10 μM, resazurin fluorescence.

`COc1ccc(C2=N[C@@H](c3ccc(Cl)cc3)[C@@H](c3ccc(Cl)cc3)N2C(=O)N2CCNC(=O)C2)c(OC(C)C)c1` [Nutlin3]: the “area under the curve (AUC)” value in the assay on MCF7 WT Parental pool (PR WT Pool, ten day drug treatment (Table 3)) is listed as 1.16; with MCF7 PR WT C7, 1.042; in the assay with MCF7 PR WT G2, 1.011; with MCF7 PR WT A8, 0.9589; in the assay with MCF7 PR WT B8 it was 0.8828. For the same compound, the “MCF7 WT Parental pool (AUC)” value in the assay with MCF7 WT Parental pool is listed as 3.686.
`CC[C@]1(O)C[C@@H]2CN(CCc3c([nH]c4ccccc34)[C@@](C(=O)OC)(c3cc4c(cc3OC)N(C)[C@H]3[C@@](O)(C(=O)OC)[C@H](OC(C)=O)[C@]5(CC)C=CCN6CC[C@]43[C@@H]65)C2)C1` [Vinblastine Sulfate]: the “MCF7 WT Parental pool (AUC)” value with MCF7 WT Parental pool is on record as 1.393. For the same compound, the “TP53 KO 3.4 pool (AUC)” value in the assay with MCF7 TP53 KO 3.4 pool was 1.54. Besides, the “TP53 KO 5.6 pool (AUC)” value in the assay with MCF7 TP53 KO 5.6 pool was found to be 1.382.
In the case of `CC[C@]1(O)C[C@H]2CN(CCc3c([nH]c4ccccc34)[C@@](C(=O)OC)(c3cc4c(cc3OC)N(C=O)[C@H]3[C@@](O)(C(=O)OC)[C@H](OC(C)=O)[C@]5(CC)C=CCN6CC[C@]43[C@@H]65)C2)C1` [Vincristine Sulfate], in the assay with MCF7 WT Parental pool, the “MCF7 WT Parental pool (AUC)” value worked out at 1.668. In addition, in the assay on MCF7 TP53 KO 3.4 pool, the “TP53 KO 3.4 pool (AUC)” value amounted to 1.776. In addition, the “TP53 KO 5.6 pool (AUC)” value with MCF7 TP53 KO 5.6 pool is 1.54.
`CS(=O)(=O)c1ccc(C(=O)Nc2ccc(Cl)c(-c3ccccn3)c2)c(Cl)c1` [Vismodegib]: the “MCF7 WT Parental pool (AUC)” value in the assay on MCF7 WT Parental pool came out at 8.801. For the same compound, in the assay on MCF7 TP53 KO 3.4 pool, the “TP53 KO 3.4 pool (AUC)” value is reported as 8.017. In addition, the “TP53 KO 5.6 pool (AUC)” value in the assay on MCF7 TP53 KO 5.6 pool stood at 8.363.
`O=C(CCCCCCC(=O)Nc1ccccc1)NO` [Vorinostat]: in the assay with MCF7 WT Parental pool, the “MCF7 WT Parental pool (AUC)” value is 2.073. Also, the “TP53 KO 3.4 pool (AUC)” value in the assay on MCF7 TP53 KO 3.4 pool worked out at 2.202. In addition, the “TP53 KO 5.6 pool (AUC)” value in the assay on MCF7 TP53 KO 5.6 pool was found to be 2.114.
As for `O=P(O)(O)C(O)(Cn1ccnc1)P(=O)(O)O` [Zoledronic Acid], the “MCF7 WT Parental pool (AUC)” value in the assay on MCF7 WT Parental pool was 9.222. Besides, the “TP53 KO 3.4 pool (AUC)” value in the assay with MCF7 TP53 KO 3.4 pool worked out at 9.268. For the same compound, the “TP53 KO 5.6 pool (AUC)” value in the assay on MCF7 TP53 KO 5.6 pool came to 9.417.
As to Arsenic Trioxide, the “MCF7 WT Parental pool (AUC)” value with MCF7 WT Parental pool was 5.018. In addition, in the assay with MCF7 TP53 KO 3.4 pool, the “TP53 KO 3.4 pool (AUC)” value was 5.242. Moreover, the “TP53 KO 5.6 pool (AUC)” value with MCF7 TP53 KO 5.6 pool worked out at 5.373.
As to Bleomycin Sulfate, the “MCF7 WT Parental pool (AUC)” value with MCF7 WT Parental pool was found to be 3.922. Moreover, the “TP53 KO 3.4 pool (AUC)” value in the assay on MCF7 TP53 KO 3.4 pool amounted to 4.694. Besides, in the assay on MCF7 TP53 KO 5.6 pool, the “TP53 KO 5.6 pool (AUC)” value was found to be 3.421.
